Measured values: US20180134683A1, “HETEROCYLCIC COMPOUNDS AS IDH2 INHIBITORS” (TELIGENE LTD., priority 2015, published 2018)
In brackets after ≈: the same amount, converted by molar mass. Like-named read-outs stand apart in the source and are kept apart here.

Legend:
IDH2 R140Q = target: T1, IDH2 R140Q (Homo sapiens, UniProt P48735, R140Q); assay: IDH2 enzymatic assay (cofactor depletion assay); format: biochemical
T1 sequence (P48735 40-452 R140Q): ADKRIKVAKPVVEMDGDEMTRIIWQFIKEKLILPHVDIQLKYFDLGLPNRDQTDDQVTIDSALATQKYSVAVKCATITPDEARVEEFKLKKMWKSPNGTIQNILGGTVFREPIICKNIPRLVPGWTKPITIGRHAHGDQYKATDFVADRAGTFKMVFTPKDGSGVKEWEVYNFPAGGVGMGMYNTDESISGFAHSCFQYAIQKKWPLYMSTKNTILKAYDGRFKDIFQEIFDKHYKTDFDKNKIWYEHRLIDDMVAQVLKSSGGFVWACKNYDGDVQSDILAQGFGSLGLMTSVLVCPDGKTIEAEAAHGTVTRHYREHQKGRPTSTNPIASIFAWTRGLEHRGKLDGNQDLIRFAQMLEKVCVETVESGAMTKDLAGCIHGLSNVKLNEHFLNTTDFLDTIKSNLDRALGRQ
Protocol: Enzymatic Assay. Compounds were assayed for IDH2 R140Q inhibitory activity through a cofactor depletion assay. […] The reaction was terminated by the addition of a second enzyme, diaphorase, and a corresponding substrate, resazurin. Diaphorase reduces resazurin to the highly fluorescent resorufin with the concomitant oxidation of NADPH to NADP, both halting the IDH2 reaction by depleting the available cofactor pool and facilitating quantitation of the amount of cofactor remaining after a specific time period through quantitative production of an easily detected fluorophore. […] The compound was then incubated for one hour at room temperature with the enzyme; before starting the IDH2 reaction with the addition of 10 μl of substrate mix containing 50 μM NADPH and 6.3 mM a-KG in the buffer described above.

ALK (L1152 R) = ALK (L1152 R) (Homo sapiens, UniProt Q9UM73, L1152R); assay: In vitro kinase assay (33P-ATP, P81 filter); format: biochemical; conditions: for remaining activity at 10 µM: 10 μM compound, 10 μM ATP
Protocol: (§1) These properties may be assesses, for example, using one or more of the procedures set out below: • An in vitro assay which determines the ability of a test compound to inhibit kinases. Conducts the kinase assay with the following condition and procedure: • Reagent: Base Reaction Buffer; 20 mM Hepes (pH 7.5), 10 mM MgCl2, 1 mM EGTA, 0.02% Brij35, 0.02 mg/ml BSA, 0.1 mM Na3VO4, 2 mM DTT, 1% DMSO.
(§2) • 1. Prepare indicated substrate in freshly prepared Base Reaction Buffer. • 2. Deliver any required cofactors to the substrate solution obtained in step 1. • 3. Deliver indicated kinase into the substrate solution prepared in step 2 and gently mix. • 4. Deliver compounds in DMSO into the kinase reaction mixture prepared in step 3. • 5. Deliver ^33P-ATP (specific activity 0.01 μCi/μl final) into the reaction mixture prepared in step 4 to initiate the reaction. • 6. Incubate kinase reaction for 120 min. at room temperature. • 7. Reactions are spotted onto P81 ion exchange paper (Whatman # 3698-915). • 8. Washing filters extensively in 0.75% Phosphoric acid. Compound was tested in single dose duplicate mode at a concentration of 10 μM, reactions were carried out at 10 μM ATP

AXL (R499C) = target: T2, AXL (R499C) (Homo sapiens, UniProt P30530, R499C); assay: In vitro kinase assay (33P-ATP, P81 filter); format: biochemical; conditions: for remaining activity at 10 µM: 10 μM compound, 10 μM ATP
T2 sequence (P30530 26-894 R499C): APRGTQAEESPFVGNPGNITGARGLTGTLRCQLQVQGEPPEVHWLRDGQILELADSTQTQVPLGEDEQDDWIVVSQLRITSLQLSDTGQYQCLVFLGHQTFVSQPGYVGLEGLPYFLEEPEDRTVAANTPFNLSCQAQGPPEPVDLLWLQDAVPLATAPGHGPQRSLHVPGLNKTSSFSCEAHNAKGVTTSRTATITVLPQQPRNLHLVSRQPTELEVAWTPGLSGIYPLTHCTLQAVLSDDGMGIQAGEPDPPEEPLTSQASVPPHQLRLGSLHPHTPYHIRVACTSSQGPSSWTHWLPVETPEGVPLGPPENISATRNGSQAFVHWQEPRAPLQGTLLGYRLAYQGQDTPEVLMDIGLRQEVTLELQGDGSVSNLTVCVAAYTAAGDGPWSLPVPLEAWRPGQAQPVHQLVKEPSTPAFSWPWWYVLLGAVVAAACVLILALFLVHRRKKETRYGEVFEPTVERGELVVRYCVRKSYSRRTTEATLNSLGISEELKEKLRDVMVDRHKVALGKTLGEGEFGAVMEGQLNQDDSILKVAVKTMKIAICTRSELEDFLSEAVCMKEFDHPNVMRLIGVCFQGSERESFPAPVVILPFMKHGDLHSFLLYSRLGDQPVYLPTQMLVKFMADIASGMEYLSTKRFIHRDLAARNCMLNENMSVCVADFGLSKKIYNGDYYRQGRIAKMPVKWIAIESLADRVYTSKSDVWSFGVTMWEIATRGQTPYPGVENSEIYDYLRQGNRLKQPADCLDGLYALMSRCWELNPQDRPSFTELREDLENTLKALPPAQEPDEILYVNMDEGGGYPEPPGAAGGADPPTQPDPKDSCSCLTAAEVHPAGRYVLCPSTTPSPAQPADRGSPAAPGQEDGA
Protocol: as §1, §2

BRAF (G464V) = BRAF (G464V) (Homo sapiens, UniProt P15056, G464V); assay: In vitro kinase assay (33P-ATP, P81 filter); format: biochemical; conditions: for remaining activity at 10 µM: 10 μM compound, 10 μM ATP
Protocol: as §1, §2

c-MER (A708S) = target: T3, c-MER (A708S) (Homo sapiens, UniProt Q12866, A708S); assay: In vitro kinase assay (33P-ATP, P81 filter); format: biochemical; conditions: for remaining activity at 10 µM: 10 μM compound, 10 μM ATP
T3 sequence (Q12866 21-999 A708S): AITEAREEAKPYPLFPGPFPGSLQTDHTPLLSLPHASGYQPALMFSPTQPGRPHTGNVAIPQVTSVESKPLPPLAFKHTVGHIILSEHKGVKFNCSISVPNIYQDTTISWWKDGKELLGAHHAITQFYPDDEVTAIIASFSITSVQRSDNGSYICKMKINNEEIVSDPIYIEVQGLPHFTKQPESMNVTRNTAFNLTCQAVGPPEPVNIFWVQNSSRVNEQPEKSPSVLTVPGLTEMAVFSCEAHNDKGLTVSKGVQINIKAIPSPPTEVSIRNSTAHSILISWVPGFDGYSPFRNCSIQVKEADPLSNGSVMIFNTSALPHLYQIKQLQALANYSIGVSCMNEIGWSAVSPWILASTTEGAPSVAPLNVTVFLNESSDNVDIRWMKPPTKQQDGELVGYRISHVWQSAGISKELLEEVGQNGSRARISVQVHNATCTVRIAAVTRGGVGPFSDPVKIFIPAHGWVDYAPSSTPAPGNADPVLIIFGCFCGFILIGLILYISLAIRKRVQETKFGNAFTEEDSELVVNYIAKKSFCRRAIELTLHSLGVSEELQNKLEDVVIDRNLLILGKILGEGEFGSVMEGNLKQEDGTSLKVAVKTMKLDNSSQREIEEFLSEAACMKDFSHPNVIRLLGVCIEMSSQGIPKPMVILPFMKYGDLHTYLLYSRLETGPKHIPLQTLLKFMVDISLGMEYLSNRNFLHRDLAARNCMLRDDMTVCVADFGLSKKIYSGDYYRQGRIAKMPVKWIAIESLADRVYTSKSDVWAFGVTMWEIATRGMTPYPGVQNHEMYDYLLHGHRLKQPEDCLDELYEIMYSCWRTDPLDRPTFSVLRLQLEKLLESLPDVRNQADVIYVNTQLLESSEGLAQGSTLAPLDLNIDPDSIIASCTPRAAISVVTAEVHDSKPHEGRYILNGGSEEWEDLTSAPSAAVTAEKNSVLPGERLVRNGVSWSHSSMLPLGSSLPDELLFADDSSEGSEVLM
Protocol: as §1, §2

[1] = Solubility measurement (HPLC); format: physicochemical; conditions: for solubility at 30 min: aqueous buffer, thermodynamic from solid, 25° C.
Protocol: Preparation of reference standard solution: 2 mg of Compound 17 or Compound 19 was added individually to 100 mL volumetric flask each. The compound was diluted with acetonitrile to 100 mL.
Preparation of sample solution: 2 mg of Compound 17 or Compound 19 was added individually to 2 mL eppendorf tube (EP), followed by addition of 1 mL of pH 7.0 or 4.0 buffer solution (20 mM). The solution was shook for 2 minutes and left for 30 minutes at 25° C. After standing for 30 minutes, precipitate was formed in the bottom of the EP. The solutions was filtered through 0.2 um membrane filter, and then diluted by 50 times with water.
The standard and sample solutions were injected into the HPLC on a Shim-Pack CLC-ODS C18 column (150mm×6.0mm, 5um) with the same volume. The mobile phase consisted of acetonitrile with 2% trichloromethane−20 mM KH2PO4 buffer (pH=7.0) at a flow rate of 1 mL/minutes (40:60). The detection wavelength is at 264 nm. Calculation: solubility of sample=the concentration of standard×Area of sample×50 /Area of standard.

[2] = Pharmacokinetic (PK) profile
[3] = IDH2 R140Q, one hour preincubation, 60 minutes reaction, read-out: Enzyme Inhibition IDH2
[4] = duplicate 1, read-out: % Enzyme Activity (relative to DMSO controls) Data 1
[5] = duplicate 2, read-out: % Enzyme Activity (relative to DMSO controls) Data 2
[6] = pH 4.0 buffer solution (20 mM), read-out: Solubility at pH 4.0
[7] = pH 7.0 buffer solution (20 mM), read-out: Solubility at pH 7.0

Chain of BRAF (G464V) (P15056 whole entry G464V): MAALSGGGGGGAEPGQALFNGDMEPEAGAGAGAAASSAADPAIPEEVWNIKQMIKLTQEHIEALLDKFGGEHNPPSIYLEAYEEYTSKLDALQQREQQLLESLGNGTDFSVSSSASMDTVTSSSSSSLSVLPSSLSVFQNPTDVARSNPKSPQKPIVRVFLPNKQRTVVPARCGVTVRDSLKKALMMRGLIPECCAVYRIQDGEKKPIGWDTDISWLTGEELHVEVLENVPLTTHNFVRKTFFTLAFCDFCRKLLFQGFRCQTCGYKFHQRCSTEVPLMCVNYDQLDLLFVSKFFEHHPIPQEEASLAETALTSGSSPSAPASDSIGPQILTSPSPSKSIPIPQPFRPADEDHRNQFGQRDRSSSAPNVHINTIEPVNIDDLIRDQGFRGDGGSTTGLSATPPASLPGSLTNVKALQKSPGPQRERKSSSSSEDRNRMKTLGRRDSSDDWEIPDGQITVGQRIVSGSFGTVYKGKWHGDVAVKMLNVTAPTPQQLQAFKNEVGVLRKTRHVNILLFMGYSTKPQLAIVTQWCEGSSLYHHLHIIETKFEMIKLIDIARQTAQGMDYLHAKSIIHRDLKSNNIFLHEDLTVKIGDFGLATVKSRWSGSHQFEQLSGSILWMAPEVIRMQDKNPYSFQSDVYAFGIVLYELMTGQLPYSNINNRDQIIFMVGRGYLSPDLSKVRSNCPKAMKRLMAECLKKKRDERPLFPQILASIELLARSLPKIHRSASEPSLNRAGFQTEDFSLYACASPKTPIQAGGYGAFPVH
Chain of ALK (L1152 R) (Q9UM73 19-1620 L1152R): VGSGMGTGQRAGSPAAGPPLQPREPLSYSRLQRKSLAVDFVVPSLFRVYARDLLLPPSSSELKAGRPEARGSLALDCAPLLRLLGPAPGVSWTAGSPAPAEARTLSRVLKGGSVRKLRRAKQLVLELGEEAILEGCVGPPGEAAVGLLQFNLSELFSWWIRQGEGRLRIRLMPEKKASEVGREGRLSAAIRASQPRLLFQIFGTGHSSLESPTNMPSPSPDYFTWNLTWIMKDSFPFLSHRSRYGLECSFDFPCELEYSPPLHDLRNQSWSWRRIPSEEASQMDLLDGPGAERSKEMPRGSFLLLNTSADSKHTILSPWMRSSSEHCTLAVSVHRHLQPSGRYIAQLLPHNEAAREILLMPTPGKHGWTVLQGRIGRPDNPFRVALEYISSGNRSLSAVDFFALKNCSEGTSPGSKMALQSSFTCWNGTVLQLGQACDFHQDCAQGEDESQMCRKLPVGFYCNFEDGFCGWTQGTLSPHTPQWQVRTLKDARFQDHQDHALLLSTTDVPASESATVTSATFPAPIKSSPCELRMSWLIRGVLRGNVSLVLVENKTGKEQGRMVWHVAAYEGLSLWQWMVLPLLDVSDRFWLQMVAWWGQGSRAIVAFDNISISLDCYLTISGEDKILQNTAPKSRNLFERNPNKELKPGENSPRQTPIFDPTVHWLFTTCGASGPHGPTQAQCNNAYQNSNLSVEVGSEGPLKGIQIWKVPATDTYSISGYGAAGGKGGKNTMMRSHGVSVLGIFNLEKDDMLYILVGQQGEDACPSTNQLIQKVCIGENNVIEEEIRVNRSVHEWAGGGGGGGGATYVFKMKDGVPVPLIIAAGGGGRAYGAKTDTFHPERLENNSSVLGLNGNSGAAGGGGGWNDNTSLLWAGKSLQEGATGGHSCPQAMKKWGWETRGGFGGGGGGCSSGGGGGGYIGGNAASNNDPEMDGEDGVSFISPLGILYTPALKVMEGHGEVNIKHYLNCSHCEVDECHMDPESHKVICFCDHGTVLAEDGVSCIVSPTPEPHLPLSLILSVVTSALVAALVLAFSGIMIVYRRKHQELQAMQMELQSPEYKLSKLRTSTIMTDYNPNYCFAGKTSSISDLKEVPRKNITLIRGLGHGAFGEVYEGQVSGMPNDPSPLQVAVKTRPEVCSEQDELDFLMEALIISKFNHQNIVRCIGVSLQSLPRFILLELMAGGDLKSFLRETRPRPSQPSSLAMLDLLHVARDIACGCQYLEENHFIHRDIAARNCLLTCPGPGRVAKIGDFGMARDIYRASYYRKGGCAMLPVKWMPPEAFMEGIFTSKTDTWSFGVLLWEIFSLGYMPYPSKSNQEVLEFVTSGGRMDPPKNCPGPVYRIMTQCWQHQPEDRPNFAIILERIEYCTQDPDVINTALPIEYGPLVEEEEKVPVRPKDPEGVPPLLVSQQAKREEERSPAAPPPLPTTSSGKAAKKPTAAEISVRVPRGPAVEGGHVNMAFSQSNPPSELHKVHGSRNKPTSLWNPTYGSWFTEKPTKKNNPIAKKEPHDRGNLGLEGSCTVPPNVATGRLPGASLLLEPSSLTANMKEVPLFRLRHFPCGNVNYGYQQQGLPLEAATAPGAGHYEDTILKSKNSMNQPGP

| SMILES | IC50 (IDH2 R140Q; [3]) [nM] | remaining activity at 10 µM (ALK (L1152 R); [4]) [%] | remaining activity at 10 µM (ALK (L1152 R); [5]) [%] | activity against kinase (in words) (ALK (L1152 R); panel of kinases) | remaining activity at 10 µM (AXL (R499C); [4]) [%] | remaining activity at 10 µM (AXL (R499C); [5]) [%] | activity against kinase (in words) (AXL (R499C); panel of kinases) | remaining activity at 10 µM (BRAF (G464V); [4]) [%] | remaining activity at 10 µM (BRAF (G464V); [5]) [%] | activity against kinase (in words) (BRAF (G464V); panel of kinases) | remaining activity at 10 µM (c-MER (A708S); [4]) [%] | remaining activity at 10 µM (c-MER (A708S); [5]) [%] | activity against kinase (in words) (c-MER (A708S); panel of kinases) | solubility at 30 min [1, 6] [µg/mL] | solubility at 30 min [1, 7] [µg/mL] | solubility compared with Compound 19 (in words) ([1]; pH=4.0) | solubility compared with Compound 19 (in words) ([1]; pH=7.0) | pharmacokinetic (PK) profile compared with Compound 19 (in words) [2] | safety profile compared with Compound 19 (in words) (Safety profile) | IC50 (IDH2 R140Q) [nM] |
| --- | --- | --- | --- | --- | --- | --- | --- | --- | --- | --- | --- | --- | --- | --- | --- | --- | --- | --- | --- | --- |
| CN1CCN(c2nc(Nc3ccnc(C(F)(F)F)c3)nc(-c3cccc(C(F)(F)F)n3)n2)CC1 [Compound 17, 4-(4-methylpiperazin-1-yl)-6-(6-(trifluoromethyl)pyridin-2-yl)-N-(2-(trifluoromethyl)pyridin-4-yl)-1,3,5-triazin-2-amine] | 262 | 79.2 | 78.9 | active | 58.2 | 58.1 | active | 69.9 | 68.9 | active | 79.8 | 79.5 | active | 123 (≈ 254 µM) | 0.276 (≈ 0.57 µM) | much higher solubility | better solubility | better pharmacokinecitc (PK) | favorable safety profile |  |
| CN(C)c1nc(Nc2ccnc(C(F)(F)F)c2)nc(-c2cccc(C(F)(F)F)n2)n1 [Compound 18, N^2,N^2-dimethyl-6-(6-(trifluoromethyl)pyridin-2-yl)-N^4-(2-(trifluoromethyl)pyridin-4-yl)-1,3,5-triazine-2,4-diamine] | 12.2 |  |  |  |  |  |  |  |  |  |  |  |  |  |  |  |  |  |  |  |
| CC(C)(O)CNc1nc(Nc2ccnc(C(F)(F)F)c2)nc(-c2cccc(C(F)(F)F)n2)n1 [Compound 19, reference compound] |  |  |  |  |  |  |  |  |  |  |  |  |  | 1.59 (≈ 3.36 µM) | 0.109 (≈ 0.23 µM) |  |  |  |  | 401 |
